{
  "source": "ChEMBL document CHEMBL1156798",
  "about": "“Structural conservation in band 4.1, ezrin, radixin, moesin (FERM) domains as a guide to identify inhibitors of the proline-rich tyrosine kinase 2” (J Med Chem, 2010)",
  "note": "The source made the active and inactive calls.",
  "data": [
    {"target": "Protein-tyrosine kinase 2-beta (Homo sapiens) (UniProt Q14289)", "sequence (Q14289 whole entry, looked up, the tested form may be a part)": "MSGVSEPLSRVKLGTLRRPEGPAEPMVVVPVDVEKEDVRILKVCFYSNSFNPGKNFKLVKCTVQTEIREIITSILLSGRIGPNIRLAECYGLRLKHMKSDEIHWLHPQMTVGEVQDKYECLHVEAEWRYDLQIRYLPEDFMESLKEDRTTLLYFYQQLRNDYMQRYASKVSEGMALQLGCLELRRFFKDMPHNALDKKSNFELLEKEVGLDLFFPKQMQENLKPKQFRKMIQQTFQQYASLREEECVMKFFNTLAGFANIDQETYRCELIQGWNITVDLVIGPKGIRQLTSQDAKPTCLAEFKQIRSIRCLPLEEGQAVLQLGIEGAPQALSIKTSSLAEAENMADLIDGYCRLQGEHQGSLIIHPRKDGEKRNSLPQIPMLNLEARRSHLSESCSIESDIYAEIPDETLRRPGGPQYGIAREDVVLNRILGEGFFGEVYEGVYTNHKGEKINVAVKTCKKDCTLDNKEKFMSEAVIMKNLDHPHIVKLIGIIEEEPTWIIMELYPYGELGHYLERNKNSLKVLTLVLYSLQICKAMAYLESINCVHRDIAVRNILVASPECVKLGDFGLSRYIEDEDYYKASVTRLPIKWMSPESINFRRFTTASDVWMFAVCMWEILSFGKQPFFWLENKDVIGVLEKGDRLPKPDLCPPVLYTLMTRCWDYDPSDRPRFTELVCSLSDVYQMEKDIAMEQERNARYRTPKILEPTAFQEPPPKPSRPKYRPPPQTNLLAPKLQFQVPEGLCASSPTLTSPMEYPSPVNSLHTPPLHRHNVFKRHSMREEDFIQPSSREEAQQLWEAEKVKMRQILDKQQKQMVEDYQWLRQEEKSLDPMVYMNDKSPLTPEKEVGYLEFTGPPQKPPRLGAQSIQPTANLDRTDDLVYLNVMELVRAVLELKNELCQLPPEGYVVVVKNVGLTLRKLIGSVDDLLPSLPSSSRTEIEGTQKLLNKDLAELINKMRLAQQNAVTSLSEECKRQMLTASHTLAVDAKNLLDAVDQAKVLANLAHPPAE", "test": "Inhibition of Pyk2-mediated stimulation of human SF767 glioma cell migration at 50 uM by radial migration assay relative to control", "conditions": "not given", "units": {"inhibition": "%"}, "values": [
      {"smiles": "C=CCOC(=O)NCCSc1nc2ccc(NC(=O)c3csnn3)cc2s1", "inhibition": 85}
    ]},
    {"target": "Protein-tyrosine kinase 2-beta (Homo sapiens) (UniProt Q14289)", "test": "Binding affinity to human Pyk2 FERM domain by LC/MS depletion assay", "conditions": "not given", "values": [
      {"smiles": "C=CCOC(=O)NCCSc1nc2ccc(NC(=O)c3csnn3)cc2s1", "Activity": "Active"}
    ]},
    {"target": "Protein-tyrosine kinase 2-beta (Homo sapiens) (UniProt Q14289)", "test": "(§1) Inhibition of HA-epitope-tagged Pyk2 FERM domain expressed in HEK293 cells assessed as inhibition of binding to 12A10 antibody by ELISA", "assay_type": "cell-based", "parameters": "inhibition: concentration or dose not given beside the values", "conditions": "not given", "values": [
      {"smiles": "C=CCOC(=O)NCCSc1nc2ccc(NC(=O)c3cc(C)n(C)n3)cc2s1", "Activity": "inactive"},
      {"smiles": "COc1ccc(C(N)=O)cc1NC(=O)c1csc(C2CCN(C(=O)c3cc4ccccc4o3)CC2)n1", "Activity": "inactive"},
      {"smiles": "Cc1cc(NS(=O)(=O)c2ccc3c(c2)CN(C(=O)C(F)(F)F)CC3)nc(C)n1", "Activity": "inactive"},
      {"smiles": "C=CCOC(=O)NCCSc1nc2ccc(NC(=O)c3ccc([N+](=O)[O-])cc3F)cc2s1", "Activity": "inactive"},
      {"smiles": "CN(C)c1ccc(NC(=S)N2CCC(c3nc(C(=O)NCCc4c[nH]c5ccc(F)cc45)cs3)CC2)cc1", "Activity": "inactive"},
      {"smiles": "COc1ccc(C(=O)CCC(=O)N2CCC(c3nc(C(=O)Nc4cc(C(N)=O)ccc4OC)cs3)CC2)cc1", "Activity": "inactive"},
      {"smiles": "C=CCOC(=O)NCCSc1nc2ccc(NC(=O)CNC(=O)OC)cc2s1", "Activity": "inactive"},
      {"smiles": "C=CCOC(=O)NCCSc1nc2ccc(NC(=O)c3cccc(C#N)c3)cc2s1", "Activity": "inactive"},
      {"smiles": "O=C(NNC(=O)[C@H]1CCCNC1=O)c1csc(C2CCN(C(=O)NCCC3=CCCCC3)CC2)n1", "Activity": "inactive"},
      {"smiles": "CCOc1ccccc1CNC(=O)c1ccc(C)nc1C1CCN(C(=O)/C=C/c2cccc(O)c2)CC1", "Activity": "inactive"},
      {"smiles": "CC(C)(C)c1cc(O)nc(SCC(=O)N2CCCN(CC(=O)Nc3ccccc3C(C)(C)C)CC2)n1", "Activity": "inactive"},
      {"smiles": "O=C(NNC(=O)c1n[nH]c2ccccc12)c1csc(C2CCN(C(=O)NCCC3=CCCCC3)CC2)n1", "Activity": "inactive"},
      {"smiles": "CCCOCCNC(=O)c1ccc(C)nc1C1CCN(C(=O)c2cc(NC(C)=O)ccc2O)CC1", "Activity": "inactive"},
      {"smiles": "CN(C)c1ccc(NC(=S)N2CCC(c3nc(C(=O)NCCOc4ccccc4Cl)cs3)CC2)cc1", "Activity": "inactive"},
      {"smiles": "C=CCOC(=O)NCCSc1nc2ccc(NC(=O)CCn3c(=O)oc4ccccc43)cc2s1", "Activity": "inactive"},
      {"smiles": "Cc1ccc(C(=O)NCCc2c[nH]c3ccccc23)c(C2CCN(C(=O)c3ccc(NC(N)=S)cc3)CC2)n1", "Activity": "inactive"},
      {"smiles": "C=CCOC(=O)NCCSc1nc2ccc(NC(=O)c3coc4c3C(=O)CCC4)cc2s1", "Activity": "inactive"},
      {"smiles": "C=CCOC(=O)NCCSc1nc2ccc(NC(=O)[C@H]3CCOC3)cc2s1", "Activity": "inactive"},
      {"smiles": "O=C(Nc1ccccc1N1CCOCC1)c1csc(C2CCN(C(=O)NCCC3=CCCCC3)CC2)n1", "Activity": "inactive"},
      {"smiles": "O=C(COc1ccccc1)NNC(=O)c1csc(C2CCN(C(=O)NCCC3=CCCCC3)CC2)n1", "Activity": "inactive"},
      {"smiles": "C=CCOC(=O)NCCSc1nc2ccc(NC(=O)c3ccccc3S(C)(=O)=O)cc2s1", "Activity": "inactive"},
      {"smiles": "CCCCNS(=O)(=O)c1cccc(NC(=O)CNC(=O)c2ccoc2)c1", "Activity": "inactive"},
      {"smiles": "COc1ccccc1NC(=O)N1CCC2(CC1)CCN(S(=O)(=O)c1sc(NC(C)=O)nc1C)C2", "Activity": "inactive"},
      {"smiles": "COC(=O)c1ccc(NS(=O)(=O)c2ccc(NC(C)=O)c(Cl)c2)cc1OC", "Activity": "inactive"},
      {"smiles": "CCOC(=O)c1nc(NC(=O)c2csc(C3CCN(C(=O)NCCC4=CCCCC4)CC3)n2)cn1C", "Activity": "inactive"},
      {"smiles": "COc1ccc(C(N)=O)cc1NC(=O)c1csc(C2CCN(C(=O)C#Cc3ccccc3)CC2)n1", "Activity": "inactive"},
      {"smiles": "C=CCOC(=O)NCCSc1nc2ccc(NC(=O)Cc3ccc([N+](=O)[O-])cc3)cc2s1", "Activity": "inactive"},
      {"smiles": "C=CCOC(=O)NCCSc1nc2ccc(NC(=O)/C=C/c3ccc([N+](=O)[O-])o3)cc2s1", "Activity": "inactive"},
      {"smiles": "C=CCOC(=O)NCCSc1nc2ccc(NC(=O)c3c([N+](=O)[O-])c(C)nn3C)cc2s1", "Activity": "inactive"},
      {"smiles": "C#CC[C@H](NC(C)=O)C(=O)Nc1ccc2nc(SCCNC(=O)OCC=C)sc2c1", "Activity": "inactive"},
      {"smiles": "C=CCOC(=O)NCCSc1nc2ccc(NC(=O)c3cc(NC(C)=O)cc(NC(C)=O)c3)cc2s1", "Activity": "inactive"},
      {"smiles": "C=CCOC(=O)NCCSc1nc2ccc(NC(=O)C3(C#N)CC3)cc2s1", "Activity": "inactive"},
      {"smiles": "O=C(CN1CCCN(C(=O)CNC(=O)C(F)(F)F)CC1)Nc1ccc(F)cc1F", "Activity": "inactive"},
      {"smiles": "CC(=O)Nc1cccc(OCCCNC(=O)c2csc(C3CCN(C(=O)C4CCCCC4)CC3)n2)c1", "Activity": "inactive"},
      {"smiles": "CC(=O)Nc1ccc(O)c(C(=O)N2CCC(c3nc(C)ccc3C(=O)NCCc3cccs3)CC2)c1", "Activity": "inactive"},
      {"smiles": "O=C(CN1CCCN(C(=O)CNC(=O)c2ccco2)CC1)NCCc1ccccc1", "Activity": "inactive"},
      {"smiles": "C=CCOC(=O)NCCSc1nc2ccc(NC(=O)[C@H]3CCCN3C(=O)c3cccs3)cc2s1", "Activity": "inactive"},
      {"smiles": "C=CCOC(=O)NCCSc1nc2ccc(NC(=O)C(C)(C)n3cncn3)cc2s1", "Activity": "inactive"},
      {"smiles": "Cc1nc(C)c(C(=O)NNC(=O)c2csc(C3CCN(C(=O)Cc4c[nH]c5ccccc45)CC3)n2)s1", "Activity": "inactive"},
      {"smiles": "C=CCOC(=O)NCCSc1nc2ccc(NC(=O)C3CCN(C(=O)c4ccccc4)CC3)cc2s1", "Activity": "inactive"},
      {"smiles": "C=CCOC(=O)NCCSc1nc2ccc(NC(=O)c3c(C)noc3C)cc2s1", "Activity": "inactive"},
      {"smiles": "COc1ccc(OC)c(NC(=S)NCC(=O)N[C@@H](CC(C)C)C(N)=O)c1", "Activity": "inactive"},
      {"smiles": "O=C(NCC(=O)N1CCC2(CC1)CCN(C(=S)NC[C@@H]1CCCO1)C2)c1ccco1", "Activity": "inactive"},
      {"smiles": "COc1ccc(C(N)=O)cc1NC(=O)c1csc(C2CCN(C(=O)c3cc(OC)c4ccccc4n3)CC2)n1", "Activity": "inactive"},
      {"smiles": "Cc1ccc(C(=O)Nc2nnc(C(C)(C)C)s2)c(C2CCN(C(=O)c3nc4ccccc4nc3O)CC2)n1", "Activity": "inactive"},
      {"smiles": "CCOC(=O)NNC(=O)c1csc(C2CCN(C(=O)Cc3c[nH]c4ccccc34)CC2)n1", "Activity": "inactive"},
      {"smiles": "C=CCOC(=O)NCCSc1nc2ccc(NC(=O)Cc3nc(C)sc3C)cc2s1", "Activity": "inactive"},
      {"smiles": "Cc1cccc(C)c1NC(=O)CN1CCCN(C(=O)CNC(=O)c2ccco2)CC1", "Activity": "inactive"},
      {"smiles": "Cc1ccc(C(=O)NCCc2cccs2)c(C2CCN(C(=O)c3nc4ccccc4nc3O)CC2)n1", "Activity": "inactive"},
      {"smiles": "CN(C)c1ccc(NC(=S)N2CCC(c3nc(C(=O)NC[C@@H]4COc5ccccc5O4)cs3)CC2)cc1", "Activity": "inactive"},
      {"smiles": "Cc1cc(C)cc(NC(=O)N2CCC3(CCN(C(=O)CCCC[C@@H]4SC[C@@H]5NC(=O)N[C@@H]54)C3)CC2)c1", "Activity": "inactive"},
      {"smiles": "N#Cc1c(Cl)cccc1Oc1ccc(S(=O)(=O)Nc2ccc(S(=O)(=O)Nc3ccccn3)cc2)cc1", "Activity": "inactive"},
      {"smiles": "COc1ccc(C(N)=O)cc1NC(=O)c1csc(C2CCN(C(=O)c3cnn(-c4ccccc4)c3C)CC2)n1", "Activity": "inactive"},
      {"smiles": "Cc1ccc(C(=O)NCCCn2ccnc2)c(C2CCN(C(=O)/C=C/c3cccc(O)c3)CC2)n1", "Activity": "inactive"},
      {"smiles": "C=CCOC(=O)NCCSc1nc2ccc(NC(=O)CS(=O)(=O)c3ccc(C)cc3)cc2s1", "Activity": "inactive"},
      {"smiles": "CN(C)c1ccc(NC(=S)N2CCC(c3nc(C(=O)NC[C@H](c4ccc[nH]4)C(F)(F)F)cs3)CC2)cc1", "Activity": "inactive"},
      {"smiles": "O=C(N1CCc2ccc(S(=O)(=O)Nc3ccc(Cl)nn3)cc2C1)C(F)(F)F", "Activity": "inactive"},
      {"smiles": "CC(=O)Nc1ccc(S(=O)(=O)NNC(=O)Nc2c(C(C)C)cccc2C(C)C)cc1Cl", "Activity": "inactive"}
    ]},
    {"target": "Protein-tyrosine kinase 2-beta (Homo sapiens) (UniProt Q14289)", "test": "as §1", "assay_type": "cell-based", "parameters": "inhibition: concentration or dose not given beside the values", "conditions": "concentration not given here", "units": {"inhibition": "%"}, "values": [
      {"smiles": "Cc1ccc(C(=O)NCCc2cc3ccccc3[nH]2)c(C2CCN(C(=O)CNC(=O)Nc3ccccc3)CC2)n1", "inhibition": 6},
      {"smiles": "C=CCOC(=O)NCCSc1nc2ccc(NC(=O)CSc3nc(C)cc(C)n3)cc2s1", "inhibition": 19},
      {"smiles": "O=C(NCC(=O)N1CCC2(CC1)CCN(C(=O)Cc1n[nH]c(=O)c3ccccc13)C2)c1ccco1", "inhibition": 18},
      {"smiles": "C=CCOC(=O)NCCSc1nc2ccc(NC(=O)CSc3ccccn3)cc2s1", "inhibition": 22},
      {"smiles": "CC(=O)Nc1ccc(S(=O)(=O)NNC(=O)Nc2ccccc2-c2ccccc2)cc1Cl", "inhibition": 24},
      {"smiles": "C=CCOC(=O)NCCSc1nc2ccc(NC(=O)[C@H]3CC(=O)c4ccccc43)cc2s1", "inhibition": 11},
      {"smiles": "C=CCOC(=O)NCCSc1nc2ccc(NC(=O)c3csnn3)cc2s1", "inhibition": 33},
      {"smiles": "COc1ccc(NC(C)=O)cc1NS(=O)(=O)c1ccc(NC(C)=O)cc1", "inhibition": 18}
    ]},
    {"target": "Protein-tyrosine kinase 2-beta (Homo sapiens) (UniProt Q14289)", "test": "Inhibition of Pyk2-mediated stimulation of human SF767 glioma cell migration at 5 uM by radial migration assay relative to control", "conditions": "not given", "units": {"inhibition": "%"}, "values": [
      {"smiles": "C=CCOC(=O)NCCSc1nc2ccc(NC(=O)c3csnn3)cc2s1", "inhibition": 50}
    ]}
  ]
}
